Measurements published in patent US4880817A, “O-functionalized derivatives of substituted isoquinolin-3-ols having cardiotonic and/or phosphodiesterase fraction III inhibiting properties and/or renal vasodilating properties” (Ortho Pharmaceutical Corporation, priority 1987, dated 1989).
Read-outs that look alike come from different tables or passages of the source.

System: adult mongrel dogs
Assay: Renal vasodilating activity in anesthetized dogs
Assay type: in vivo, mongrel dog
Conditions: for change in vivo at 1.2 mg/kg / change in vivo at 6.2 mg/kg / change in vivo at 0.3 mg/kg: Canis lupus familiaris
Procedure: Goldberg et al., J. Pharmacol. Exp. Ther., 163, 188 (1968), performed an investigation of the structural requirements for dopamine-like renal vasodilation of phenethylamines and apomorphine. The following procedure is a variation of the assay described in that report.
Adult mongrel dogs were anesthetized and surgically prepared for electromagnetic measurement of renal artery blood flow. A carotid artery was cannulated for measuring arterial blood pressure and drugs were administered intravenously or intraarterially (via the renal artery). Heart rate was monitored with a cardiotachometer. Renal vascular resistance was calculated as the ratio of mean arterial blood pressure to renal artery blood flow. Dopamine was infused intravenously at 3 μg/kg/min for ten minutes (at an infusion rate of about 1 ml/min) to determine responsiveness of each dog to renal dopamine receptor stimulation. Cumulative dose-response data were obtained by infusing a compound of this invention at progressively increasing (usually three-fold) infusion rates, each dose being infused for five minutes. The maximum percent change from pre-drug control in renal artery blood flow (or in renal vascular resistance) was determined for each infusion dose.
RBF, RVR, MABP, and HR values are percent changes in renal blood flow, renal vascular resistance, mean arterial blood pressure, and heart rate, respectively, relative to control values.

[1] = dose 1.2 mpk, relative to controls, read-out: HR: percent change in heart rate
[2] = dose 1.2 mpk, relative to controls, read-out: MABP: percent change in mean arterial blood pressure
[3] = dose 1.2 mpk, relative to controls, read-out: RBF: percent change in renal blood flow
[4] = dose 1.2 mpk, relative to controls, read-out: RVR: percent change in renal vascular resistance
[5] = read-out: HR: percent change in heart rate, dose 6.2 mpk, relative to controls
[6] = read-out: MABP: percent change in mean arterial blood pressure, dose 6.2 mpk, relative to controls
[7] = read-out: RBF: percent change in renal blood flow, dose 6.2 mpk, relative to controls
[8] = read-out: RVR: percent change in renal vascular resistance, dose 6.2 mpk, relative to controls
[9] = read-out: HR: percent change in heart rate, dose 1.2 mpk, relative to controls
[10] = read-out: MABP: percent change in mean arterial blood pressure, dose 1.2 mpk, relative to controls
[11] = read-out: RBF: percent change in renal blood flow, dose 1.2 mpk, relative to controls
[12] = read-out: RVR: percent change in renal vascular resistance, dose 1.2 mpk, relative to controls
[13] = dose 1.2 mpk, relative to controls, 1.2 mg/kg

SMILES	change in vivo at 1.2 mg/kg [9] [%]	change in vivo at 1.2 mg/kg [10] [%]	change in vivo at 1.2 mg/kg [11] [%]	change in vivo at 1.2 mg/kg [12] [%]	further results
CCN(CC)C(=O)Oc1nc(C)c2cc(OC)c(OC)cc2c1NC(=O)Nc1ccc(OC)cc1 [Cmpd 51]					change in vivo at 1.2 mg/kg [1]: 25%; change in vivo at 1.2 mg/kg [2]: -6%; change in vivo at 1.2 mg/kg [3]: 17%; change in vivo at 1.2 mg/kg [4]: -20%
COc1cc2c(C)nc(OC(=O)N3CCCC3)c([N+](=O)[O-])c2cc1OC [Cmpd 52]					change in vivo at 6.2 mg/kg [5]: 0%; change in vivo at 6.2 mg/kg [6]: -15%; change in vivo at 6.2 mg/kg [7]: 41%; change in vivo at 6.2 mg/kg [8]: -37%
CCCCNC(=O)Nc1c(OC(=O)N2CCCC2)nc(C)c2cc(OC)c(OC)cc12 [Cmpd 55]	2	-4	14	-14	
CCCCNC(=O)Nc1c(OC(=O)N(c2ccccc2)c2ccccc2)nc(C)c2cc(OC)c(OC)cc12 [Cmpd 57]	7	4	28	-18	
C=CCNC(=O)Nc1c(OC(=O)N2CCCC2)nc(C)c2cc(OC)c(OC)cc12 [Cmpd 59]	2	1	23	-16	
C=CCNC(=O)Nc1c(OC(=O)N(c2ccccc2)c2ccccc2)nc(C)c2cc(OC)c(OC)cc12 [Cmpd 60]	8	4	27	-17	
CCCCNC(=O)Nc1c(OC(=O)N(C(C)C)C(C)C)nc(C)c2cc(OC)c(OC)cc12 [Cmpd 61]	11	-1	47	-32	
C=CCNC(=O)Nc1c(OC(=O)N(C(C)C)C(C)C)nc(C)c2cc(OC)c(OC)cc12 [Cmpd 62]	0	11	17	-5	
CCCCNC(=O)Nc1c(OS(=O)(=O)N(C)C)nc(C)c2cc(OC)c(OC)cc12 [Cmpd 64]					change in vivo at 1.2 mg/kg [1]: 0%; change in vivo at 1.2 mg/kg [2]: 4%; change in vivo at 1.2 mg/kg [3]: 15%; change in vivo at 1.2 mg/kg [4]: -9%
C=CCNC(=O)Nc1c(OS(=O)(=O)N(C)C)nc(C)c2cc(OC)c(OC)cc12 [Cmpd 65]					change in vivo at 1.2 mg/kg [1]: -7%; change in vivo at 1.2 mg/kg [2]: -1%; change in vivo at 1.2 mg/kg [3]: 25%; change in vivo at 1.2 mg/kg [4]: -22%
C=CCNC(=O)Nc1c(OC(=O)N(C)C)nc(C)c2cc(OC)c(OC)cc12 [Cmpd 67]	0				MABP: percent change in mean arterial blood pressure [13]: +7 percent change; RBF: percent change in renal blood flow [13]: +50 percent change; RVR: percent change in renal vascular resistance [13]: -28 percent change
COc1cc2c(C)nc(OC(=O)N3CCN(C(=O)OC(C)(C)C)CC3)c([N+](=O)[O-])c2cc1OC [Cmpd 68]					change in vivo at 0.3 mg/kg (read-out: HR: percent change in heart rate, dose 0.3 mpk, relative to controls): 11%; change in vivo at 0.3 mg/kg (read-out: MABP: percent change in mean arterial blood pressure, dose 0.3 mpk, relative to controls): -1%; change in vivo at 0.3 mg/kg (read-out: RBF: percent change in renal blood flow, dose 0.3 mpk, relative to controls): 17%; change in vivo at 0.3 mg/kg (read-out: RVR: percent change in renal vascular resistance, dose 0.3 mpk, relative to controls): -13%
CCOc1cc2c(C)nc(OC(=O)N3CCN(C(=O)OC(C)(C)C)CC3)c([N+](=O)[O-])c2cc1OC [Cmpd 69]					change in vivo at 6.2 mg/kg [5]: 21%; change in vivo at 6.2 mg/kg [6]: 6%; change in vivo at 6.2 mg/kg [7]: 24%; change in vivo at 6.2 mg/kg [8]: -14%
C=CCNC(=O)Nc1c(OC(=O)N2CCN(C(=O)OC(C)(C)C)CC2)nc(C)c2cc(OC)c(OC)cc12 [Cmpd 75]	12	9	27	-15	
CCCCNC(=O)Nc1c(OC(=O)N2CCN(C(=O)OC(C)(C)C)CC2)nc(C)c2cc(OC)c(OC)cc12 [Cmpd 76]	-9	-2	23	-22	
COc1cc2c(C)nc(OCOC(=O)C(C)(C)C)c([N+](=O)[O-])c2cc1OC [Cmpd 77]					change in vivo at 6.2 mg/kg (dose 6.2 mpk, relative to controls, read-out: HR: percent change in heart rate): 5%; change in vivo at 6.2 mg/kg (dose 6.2 mpk, relative to controls, read-out: MABP: percent change in mean arterial blood pressure): -3%; change in vivo at 6.2 mg/kg (dose 6.2 mpk, relative to controls, read-out: RBF: percent change in renal blood flow): 7%; change in vivo at 6.2 mg/kg (dose 6.2 mpk, relative to controls, read-out: RVR: percent change in renal vascular resistance): -8%
